{"source": "ChEMBL document CHEMBL1687746", "about": "“Impact of sarA on daptomycin susceptibility of Staphylococcus aureus biofilms in vivo” (2009)", "key": {"[1]": {"test_system": "Staphylococcus aureus", "assay": "Antimicrobial activity against Staphylococcus aureus UAMS-1625 by Etest method", "type": "functional"}, "[2]": {"test_system": "Staphylococcus aureus", "assay": "Antimicrobial activity against Staphylococcus aureus UAMS-1625 sarA mutant by Etest method", "type": "functional"}, "[3]": {"test_system": "Staphylococcus aureus", "assay": "Antimicrobial activity against Staphylococcus aureus UAMS-1 by Etest method"}, "[4]": {"test_system": "Staphylococcus aureus", "assay": "Antimicrobial activity against Staphylococcus aureus UAMS-1 sarA mutant by Etest method"}, "[5]": {"test_system": "Staphylococcus aureus", "assay": "Antimicrobial activity against Staphylococcus aureus UAMS-1 assessed as reduction in bacterial load in catheter at >/= 10 ug/ml for 3 days", "type": "functional, organism-based"}, "[6]": {"test_system": "Staphylococcus aureus", "assay": "Antimicrobial activity against Staphylococcus aureus UAMS-1 assessed as reduction in bacterial load in catheter at 20 ug/ml for 3 days", "type": "functional, organism-based"}, "[7]": {"test_system": "Staphylococcus aureus", "assay": "Antimicrobial activity against Staphylococcus aureus UAMS-1625 reduction in bacterial load in catheter at 20 ug/ml for 3 days", "type": "functional, organism-based"}, "[8]": {"test_system": "Staphylococcus aureus", "assay": "Antimicrobial activity against Staphylococcus aureus UAMS-1 assessed as bacterial load in catheter at 20 times MIC", "type": "functional"}, "[9]": {"test_system": "Staphylococcus aureus", "assay": "Antimicrobial activity against Staphylococcus aureus UAMS-1625 assessed as bacterial load in catheter at 10 times MIC", "type": "functional"}, "[10]": {"test_system": "Staphylococcus aureus", "assay": "Antimicrobial activity against Staphylococcus aureus UAMS-929 assessed as bacterial load in catheter at 20 times MIC", "type": "functional"}, "[11]": {"test_system": "Staphylococcus aureus", "assay": "Antimicrobial activity against Staphylococcus aureus UAMS-1653 assessed as bacterial load in catheter at 10 times MIC", "type": "functional"}}, "note": "Active and inactive are the calls of the source. No cut-off for these calls is given here.", "data": [{"smiles": "CCCCCCCCCC(=O)N[C@@H](Cc1c[nH]c2ccccc12)C(=O)N[C@H](CC(N)=O)C(=O)N[C@@H](CC(=O)O)C(=O)N[C@@H]1C(=O)NCC(=O)N[C@@H](CCCN)C(=O)N[C@@H](CC(=O)O)C(=O)N[C@H](C)C(=O)N[C@@H](CC(=O)O)C(=O)NCC(=O)N[C@H](CO)C(=O)N[C@@H]([C@H](C)CC(=O)O)C(=O)N[C@@H](CC(=O)c2ccccc2N)C(=O)O[C@@H]1C", "values": [{"measurement": "MIC", "setting": "[1]", "result": 0.38, "unit": "µg/mL"}, {"measurement": "MIC", "setting": "[2]", "result": 0.38, "unit": "µg/mL"}, {"measurement": "MIC", "setting": "[3]", "result": 0.5, "unit": "µg/mL"}, {"measurement": "MIC", "setting": "[4]", "result": 0.5, "unit": "µg/mL"}, {"measurement": "Activity", "setting": "[5]", "result": "Active"}, {"measurement": "Activity", "setting": "[6]", "result": "inactive"}, {"measurement": "Activity", "setting": "[7]", "result": "Active"}, {"measurement": "Activity", "setting": "[8]", "result": 6.7, "unit": "%"}, {"measurement": "Activity", "setting": "[9]", "result": 6.3, "unit": "%"}, {"measurement": "Activity", "setting": "[10]", "result": 46.4, "unit": "%"}, {"measurement": "Activity", "setting": "[11]", "result": 69, "unit": "%"}]}]}
